Tested on: 926638-142-R-J1-PDC complex spheroid viability
Experiment: Anticancer human tumor 926638-142-R-J1-PDC patient-derived endometrial carcinoma cell line growth inhibition [POLQ]
Settings: for IC50: curve of first compound; for viability, T/C: stronger effect = lower value
Method in brief: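 Three-cell-type spheroids modelling solid tumor plus stroma served as the readout system; POL inhibitors were tested individually and in combination, concentration ranges set by clinical Cmax where known.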

[1] = second compound 0.0316 µM, first compound 0.0316 µM
[2] = second compound 0.0316 µM, first compound 0.1 µM
[3] = second compound 0.0316 µM, first compound 0.316 µM
[4] = second compound 0.0316 µM, first compound 1 µM
[5] = second compound 0.0316 µM, first compound 3.16 µM
[6] = second compound 0.0316 µM, first compound 10 µM
[7] = second compound 0.1 µM, first compound 0.0316 µM
[8] = second compound 0.1 µM, first compound 0.1 µM
[9] = second compound 0.1 µM, first compound 0.316 µM
[10] = second compound 0.1 µM, first compound 1 µM
[11] = second compound 0.1 µM, first compound 3.16 µM
[12] = second compound 0.1 µM, first compound 10 µM
[13] = second compound 0.316 µM, first compound 0.0316 µM
[14] = second compound 0.316 µM, first compound 0.1 µM
[15] = second compound 0.316 µM, first compound 0.316 µM
[16] = second compound 0.316 µM, first compound 1 µM
[17] = second compound 0.316 µM, first compound 3.16 µM
[18] = second compound 0.316 µM, first compound 10 µM
[19] = second compound 1 µM, first compound 0.0316 µM
[20] = second compound 1 µM, first compound 0.1 µM
[21] = second compound 1 µM, first compound 0.316 µM
[22] = second compound 1 µM, first compound 1 µM
[23] = second compound 1 µM, first compound 3.16 µM
[24] = second compound 1 µM, first compound 10 µM
[25] = second compound 3.16 µM, first compound 0.0316 µM
[26] = second compound 3.16 µM, first compound 0.1 µM
[27] = second compound 3.16 µM, first compound 0.316 µM
[28] = second compound 3.16 µM, first compound 1 µM
[29] = second compound 3.16 µM, first compound 3.16 µM
[30] = second compound 3.16 µM, first compound 10 µM
[31] = second compound 10 µM, first compound 0.0316 µM
[32] = second compound 10 µM, first compound 0.1 µM
[33] = second compound 10 µM, first compound 0.316 µM
[34] = second compound 10 µM, first compound 1 µM
[35] = second compound 10 µM, first compound 3.16 µM
[36] = second compound 10 µM, first compound 10 µM
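Also: spheroids exposed to drugs for one week before readout.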
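For viability, T/C in this document: percent viability relative to DMSO vehicle control wells set as 100%.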

## C#Cc1c(F)ccc2cc(O)cc(-c3ncc4c(N5CC6CCC(C5)N6)nc(OCC56CCCN5CC(F)C6)nc4c3F)c12 (stereo unspecified) + COC1C(OC(N)=O)C(O)C(Oc2ccc3c(O)c(NC(=O)c4ccc(O)c(CC=C(C)C)c4)c(=O)oc3c2C)OC1(C)C
Second compound 0.0316 µM
  IC50: > 10 µM
Second compound 0.1 µM
  IC50: > 10 µM
Second compound 0.316 µM
  IC50: > 10 µM
Second compound 1 µM
  IC50: > 10 µM
Second compound 3.16 µM
  IC50: > 10 µM
Second compound 10 µM
  IC50: > 10 µM
[1]
  viability, T/C: 99.4%
[2]
  viability, T/C: 84.1%
[3]
  viability, T/C: 89%
[4]
  viability, T/C: 84.2%
[5]
  viability, T/C: 60.1%
[6]
  viability, T/C: 54.6%
[7]
  viability, T/C: 90.2%
[8]
  viability, T/C: 86.6%
[9]
  viability, T/C: 81.3%
[10]
  viability, T/C: 72.9%
[11]
  viability, T/C: 66.4%
[12]
  viability, T/C: 51.9%
[13]
  viability, T/C: 97.1%
[14]
  viability, T/C: 73.7%
[15]
  viability, T/C: 89.4%
[16]
  viability, T/C: 64.9%
[17]
  viability, T/C: 59.4%
[18]
  viability, T/C: 65.9%
[19]
  viability, T/C: 84.8%
[20]
  viability, T/C: 81.7%
[21]
  viability, T/C: 80.9%
[22]
  viability, T/C: 71.9%
[23]
  viability, T/C: 72.2%
[24]
  viability, T/C: 61.9%
[25]
  viability, T/C: 78.9%
[26]
  viability, T/C: 84.2%
[27]
  viability, T/C: 77.9%
[28]
  viability, T/C: 72.2%
[29]
  viability, T/C: 64.4%
[30]
  viability, T/C: 52.5%
[31]
  viability, T/C: 85.2%
[32]
  viability, T/C: 73.5%
[33]
  viability, T/C: 91.3%
[34]
  viability, T/C: 67.4%
[35]
  viability, T/C: 68.4%
[36]
  viability, T/C: 62.9%

## C=CC(=O)N1CCN(c2nc(=O)n(-c3c(C)ccnc3C(C)C)c3nc(-c4c(O)cccc4F)c(F)cc23)C(C)C1 (stereo unspecified) + COC1C(OC(N)=O)C(O)C(Oc2ccc3c(O)c(NC(=O)c4ccc(O)c(CC=C(C)C)c4)c(=O)oc3c2C)OC1(C)C
Second compound 0.0316 µM
  IC50: > 10 µM
Second compound 0.1 µM
  IC50: > 10 µM
Second compound 0.316 µM
  IC50: > 10 µM
Second compound 1 µM
  IC50: > 10 µM
Second compound 3.16 µM
  IC50: > 10 µM
Second compound 10 µM
  IC50: 8.27 µM
[1]
  viability, T/C: 83.3%
[2]
  viability, T/C: 95.4%
[3]
  viability, T/C: 76.5%
[4]
  viability, T/C: 86.8%
[5]
  viability, T/C: 64.2%
[6]
  viability, T/C: 52.5%
[7]
  viability, T/C: 92.6%
[8]
  viability, T/C: 91.6%
[9]
  viability, T/C: 85.1%
[10]
  viability, T/C: 80.8%
[11]
  viability, T/C: 80.1%
[12]
  viability, T/C: 65.6%
[13]
  viability, T/C: 101%
[14]
  viability, T/C: 96.2%
[15]
  viability, T/C: 87.3%
[16]
  viability, T/C: 85.8%
[17]
  viability, T/C: 68.5%
[18]
  viability, T/C: 53.6%
[19]
  viability, T/C: 81.3%
[20]
  viability, T/C: 87.9%
[21]
  viability, T/C: 77.1%
[22]
  viability, T/C: 80.9%
[23]
  viability, T/C: 77.2%
[24]
  viability, T/C: 59.4%
[25]
  viability, T/C: 74.1%
[26]
  viability, T/C: 87.7%
[27]
  viability, T/C: 77.4%
[28]
  viability, T/C: 75.7%
[29]
  viability, T/C: 74.5%
[30]
  viability, T/C: 56.5%
[31]
  viability, T/C: 77.4%
[32]
  viability, T/C: 96%
[33]
  viability, T/C: 103%
[34]
  viability, T/C: 73.6%
[35]
  viability, T/C: 76.1%
[36]
  viability, T/C: 45.1%

## CC1COCCN1c1cc(C2(O)CC3CCC(C2)O3)c2cnn(-c3ccn[nH]3)c2n1 (stereo unspecified) + COC1C(OC(N)=O)C(O)C(Oc2ccc3c(O)c(NC(=O)c4ccc(O)c(CC=C(C)C)c4)c(=O)oc3c2C)OC1(C)C
Second compound 0.0316 µM
  IC50: 0.212 µM
Second compound 0.1 µM
  IC50: 0.204 µM
Second compound 0.316 µM
  IC50: 0.2 µM
Second compound 1 µM
  IC50: 0.217 µM
Second compound 3.16 µM
  IC50: 0.222 µM
Second compound 10 µM
  IC50: 0.181 µM
[1]
  viability, T/C: 106%
[2]
  viability, T/C: 74.5%
[3]
  viability, T/C: 35.6%
[4]
  viability, T/C: 17.5%
[5]
  viability, T/C: 7.23%
[6]
  viability, T/C: 1.82%
[7]
  viability, T/C: 108%
[8]
  viability, T/C: 64.9%
[9]
  viability, T/C: 46%
[10]
  viability, T/C: 12.8%
[11]
  viability, T/C: 6.56%
[12]
  viability, T/C: 1.94%
[13]
  viability, T/C: 102%
[14]
  viability, T/C: 69.1%
[15]
  viability, T/C: 37.4%
[16]
  viability, T/C: 16.5%
[17]
  viability, T/C: 7.59%
[18]
  viability, T/C: 1.6%
[19]
  viability, T/C: 86.9%
[20]
  viability, T/C: 75.8%
[21]
  viability, T/C: 36.8%
[22]
  viability, T/C: 12.9%
[23]
  viability, T/C: 7.07%
[24]
  viability, T/C: 1.87%
[25]
  viability, T/C: 90.5%
[26]
  viability, T/C: 77.7%
[27]
  viability, T/C: 36.5%
[28]
  viability, T/C: 15%
[29]
  viability, T/C: 6.73%
[30]
  viability, T/C: 2%
[31]
  viability, T/C: 91.4%
[32]
  viability, T/C: 69.4%
[33]
  viability, T/C: 31.1%
[34]
  viability, T/C: 13%
[35]
  viability, T/C: 7.88%
[36]
  viability, T/C: 1.74%

Source: PubChem BioAssay AID1963826 (Molecular Pharmacology Branch, DTP, NCI, 2024)
